From patent US4762850A, “Dopamine-beta-hydroxylase inhibitors” (SmithKline Beckman Corporation, priority 1987, dated 1988)
Structures can show the parent of a compound that is named as a salt.

How the values were obtained:
[1] = Teresawa et al. and references cited therein; cited from earlier work
[2] = molecular target: T1, dopamine-β-hydroxylase (DBH) (Bos taurus, UniProt P15101); assay: in vitro DBH inhibition: conversion of tyramine to octopamine (standard procedure of Pisano et al.); format: biochemical; details: absorbance at 330 nm, read-out: DBH IC50 (molar concentration of compound at which DBH activity was halved)
T1 sequence (P15101 1-610): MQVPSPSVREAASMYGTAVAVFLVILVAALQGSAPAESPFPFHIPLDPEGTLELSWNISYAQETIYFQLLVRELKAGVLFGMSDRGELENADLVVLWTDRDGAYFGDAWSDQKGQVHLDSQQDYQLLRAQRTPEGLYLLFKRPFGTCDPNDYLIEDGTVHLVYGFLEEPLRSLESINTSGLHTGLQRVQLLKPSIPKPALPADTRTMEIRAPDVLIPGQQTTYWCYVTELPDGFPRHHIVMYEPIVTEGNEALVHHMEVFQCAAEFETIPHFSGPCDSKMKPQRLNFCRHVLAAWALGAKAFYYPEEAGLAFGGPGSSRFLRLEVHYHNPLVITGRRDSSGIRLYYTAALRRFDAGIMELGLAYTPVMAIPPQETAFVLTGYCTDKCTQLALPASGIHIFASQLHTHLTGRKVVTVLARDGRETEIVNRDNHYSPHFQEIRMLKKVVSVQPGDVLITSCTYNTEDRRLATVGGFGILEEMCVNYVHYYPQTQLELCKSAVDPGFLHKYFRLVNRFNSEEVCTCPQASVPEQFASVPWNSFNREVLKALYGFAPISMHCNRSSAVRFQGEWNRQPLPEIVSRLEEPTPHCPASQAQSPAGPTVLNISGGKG
Description: Listed in Table I are the compounds of the invention that were tested for in vitro DBH inhibition by a standard procedure for assaying conversion of tyramine to octopamine in the presence of DBH. J. J. Pisano, et al., Biochim. Biophys. Acta, 43, 566-568 (1960). Octopamine was assayed following sodium periodate oxidation to p-hydroxybenzaldehyde by measuring spectrophotometric absorbance at 330 nm. In Table I, inhibition is given in molar concentration of compound at which DBH activity was halved (IC50).

[3] = mean arterial blood pressure in spontaneously hypertensive rats; format: in vivo; details: 50 mg/kg intraperitoneally
Description: Further, spontaneously hypertensive rats were treated with a suspension or solution of N-(2-aminoethyl)-1-(3,5-difluorobenzyl)-2-mercaptoimidazole-5-carboxamide,formate at a dose of 50 mg/kg intraperitoneally, and mean arterial blood pressure was monitored for 260 minutes using indwelling cannulae in the tail arteries.

[4] = molecular target: T1, dopamine-β-hydroxylase (DBH); details: cited from earlier work; for DBH inhibition (in words): literature reports
[5] = Ehrreich et al.; cited from earlier work

SMILES: CCCCc1ccc(C(=O)O)nc1 [Fusaric acid]
- toxicity [1]: hepatotoxic

SMILES: NCCNC(=O)c1cnc(S)n1Cc1cc(F)cc(F)c1 [N-(2-Aminoethyl)-1-(3,5-difluorobenzyl)-2-mercaptoimidazole-5-carboxamide,formate]
- IC50 [2]: 0.34 µM
- mean arterial blood pressure reduction compared to vehicle-treated controls ([3]; spontaneously hypertensive rats): significant blood pressure reductions
- blood pressure when monitoring was terminated ([3]; monitored for 260 minutes): blood pressure remained decreased

SMILES: CCCCc1ccc(C(N)=O)nc1 [Bupicomide, 5-(n-butyl)picolinamine]
- DBH inhibition (in words) [4]: DBH inhibitor
- antihypertensive activity [5]: has antihypertensive activity

SMILES: NOCc1ccccc1 [Benzyloxyamine, benzyloxyamine]
- mode of DBH inhibition [4]: competitive inhibitors

SMILES: O=C(O)c1cnc(S)n1Cc1cc(F)cc(F)c1 [1-(3,5-Difluorobenzyl)-2-mercaptoimidazole-5-carboxylic acid]
- IC50 [2]: 100 µM

SMILES: O=C(O)c1ccc(CCC(Br)CBr)cn1 (stereo not drawn) [5-(3,4-dibromobutyl)picolinic acid]
- DBH inhibition (in words) [4]: DBH inhibitors

SMILES: NNCc1ccccc1 [benzylhydrazine]
- mode of DBH inhibition [4]: competitive inhibitors

SMILES: CN(C)C(=S)SCc1ccc(C(=O)O)nc1 [5-(dimethyldithiocarbamoylmethyl)picolinic acid]
- DBH inhibition (in words) [4]: DBH inhibitors

SMILES: O=C(O)c1ccc(CCCCCl)cn1 [5-(4-chlorobutyl) picolinic acid]
- DBH inhibition (in words) [4]: inhibit DBH
